These results are taken from patent US9980943B2, “Methods of treating muscular dystrophy” (BOARD OF REGENTS OF THE NEVADA SYSTEM OF HIGHER EDUCATION, …, priority 2013, dated 2018).

Assay [1] deals with β-galactosidase in CMV-LacZ C2C12 myotubes. Kind of assay: CMV-LacZ secondary screen in C2C12 myotubes (β-Gal stabilizing assay). It is filed as cell-based, mouse. Particulars: for CMV-LACZ in Myotubes, signal relative to DMSO: C2C12 CMV-LacZ myotubes, fold relative to DMSO; for CMV-LACZ in Myotubes, value relative to DMSO: SU9516 analogs, C2C12 CMV-LacZ, N=2. In a few lines:
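β-Gal level was the read-out, measured in a clonal C2C12 line expressing LacZ from a CMV promoter. Dose-response curves used six concentrations, 0.5 μM up to 40 μM, with duplicate points.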

Assay [2] relates to α7 integrin (LacZ reporter in α7+/LacZ myotubes). In words: Myotube α7 integrin FDG assay (Burkin assay in myotubes, 96-well). It is filed as cell-based, mouse. Particulars: for Burkin Assay in Myotubes, value relative to DMSO: SU9516 analogs, 96-well, N=3-6; for Burkin Assay in Myotubes, α7 integrin LacZ reporter signal relative to DMSO / MT FOLD INCREASE / EC50: myotubes; for MT FOLD INCREASE: maximum response; for EC50: nonlinear regression of dose-response curves, read-out: EC50 α7+/LacZ MT.

Assay [3] deals with β-galactosidase in CMV-LacZ C2C12 myoblasts. In words: CMV-LacZ secondary screen in C2C12 myoblasts (β-Gal stabilizing assay). It is filed as cell-based, mouse. To be noted: for CMV-LACZ in Myoblasts (β-galactosidase activity relative to DMSO): CMV-LacZ C2C12 myoblasts; for CMV-LACZ in Myoblasts, value relative to DMSO: SU9516 analogs, C2C12 CMV-LacZ, N=2. The source says:
In order to determine compounds that acted to stabilize β-gal in myogenic cells, a CMV-LacZ C2C12 cell line was used in a secondary screen. The EGFP gene from the pEGFP (Clontech) vector was replaced by LACZ PCR product with digests of the vector/PCR product performed using EcoRI (NEB) and NotI (NEB) and ligated using T4 DNA Ligase (NEB) following standard procedures to produce the CMV-LACZ vector. The LACZ gene was generated by PCR from the pBK-RSV (Stratagene) vector using primers LACZ EcoRI F- and LACZ NotI R-. The CMV-LACZ vector was then digested with AfIII (NEB) to linearize the construct, which was then transfected in C2C12 myoblasts using Lipofectamine 2000 (Invitrogen) following the manufacturer's instructions. […] Clonal lines were selected and screened for βgal levels using the myoblast FDG assay.
The assays were used the original 96-well format and new dose-response curves for myoblasts (N=3-6 replicates for each data point), myotubes (N=3-6 replicates for data point), and CMV-LacZ secondary assay (N=2 replicates for each data point) using concentrations of 0.5 μM, 1 μM, 5 μM, 10 μM, 20 μM, and 40 μM (Tables 9-16).

Assay [4] has as its system α7 integrin (LacZ reporter in α7βgal+/− myoblasts). Kind of assay: Myoblast α7+/LacZ integrin FDG assay (Burkin assay in myoblasts, 96-well). It is filed as cell-based, mouse. Particulars: 96-well; for Burkin Assay in Myoblasts, signal relative to DMSO: α7+/LacZ myoblasts; for Burkin Assay in Myoblasts, value relative to DMSO: SU9516 analogs, N=3-6.
Assay [5] concerns α7 integrin (LacZ reporter in α7LacZ+/− myoblasts). Kind of assay: qHTS of the LOPAC library and MLSMR (online screen, α7LacZ+/− myoblasts). To be noted: MLSMR qHTS, myoblasts. On the technique in general: Quantitative high-throughput screening tests each substance at several concentrations.

Regarding `Cc1ccsc1-c1n[nH]c(=S)n1C1CCCCC1` [MLS000698617-01], the “CMV-LACZ in Myotubes, signal relative to DMSO” value in assay [1] (0.5 uM) turned out to be 1.1221; in assay [1] (1 uM) it was 1.0842; in assay [1] (5 uM) it was 0.9014; in assay [1] (10 uM), 0.9614; in assay [1] (20 uM), 1.0011; in assay [1] (40 uM), 1.0111. Besides, the “Burkin Assay in Myotubes, α7 integrin LacZ reporter signal relative to DMSO” value in assay [2] (0.5 uM) was 1.197; in assay [2] (1 uM) it was 1.075; in assay [2] (5 uM) it was 1.139; in assay [2] (10 uM), 0.945; in assay [2] (20 uM), 1.092; in assay [2] (40 uM), 0.7963. Further, the “CMV-LACZ in Myoblasts (β-galactosidase activity relative to DMSO)” value in assay [3] (0.5 uM) came to 1.3409; in assay [3] (1 uM), 0.9852; in assay [3] (5 uM), 1.1399; in assay [3] (10 uM), 1.0603; in assay [3] (20 uM) it was 1.1670; in assay [3] (40 uM), 1.0356. The “Burkin Assay in Myoblasts, signal relative to DMSO” value in assay [4] (0.5 uM) is 1.008; in assay [4] (1 uM) it was 1.003; in assay [4] (5 uM), 1.06; in assay [4] (10 uM), 0.9317; in assay [4] (20 uM), 0.8462; in assay [4] (40 uM), 0.8966.

In the case of `COc1ccc(C(=O)/C=C2/C(=O)Nc3ccccc32)cc1OC` [MLS001163860-01], the “CMV-LACZ in Myotubes, value relative to DMSO” value is 1.0352 in assay [1] (0.5 uM); 1.1562 in assay [1] (1 uM); 1.1250 in assay [1] (5 uM); 1.2757 in assay [1] (10 uM); 1.3880 in assay [1] (20 uM); 1.4490 in assay [1] (40 uM). Besides, the “Burkin Assay in Myotubes, value relative to DMSO” value in assay [2] (0.5 uM) was 1.009; in assay [2] (1 uM) it was 0.9404; in assay [2] (5 uM) it was 0.9223; in assay [2] (10 uM), 1.138; in assay [2] (20 uM), 0.862; in assay [2] (40 uM), 1.209. Besides, the “CMV-LACZ in Myoblasts, value relative to DMSO” value in assay [3] (0.5 uM) stood at 0.9350; in assay [3] (1 uM), 0.8230; in assay [3] (5 uM), 0.9610; in assay [3] (10 uM), 1.1417; in assay [3] (20 uM), 0.3425; in assay [3] (40 uM), 0.6488. Also, the “Burkin Assay in Myoblasts, value relative to DMSO” value in assay [4] (0.5 uM) turned out to be 0.9494; in assay [4] (1 uM), 0.8457; in assay [4] (5 uM), 0.5793; in assay [4] (10 uM), 0.4922; in assay [4] (20 uM), 0.1722; in assay [4] (40 uM) it was 0.2347.

As for `CCC(C)n1[nH]c(=O)cc1N` (stereo not shown) [MLS000073150-01], the “CMV-LACZ in Myotubes, signal relative to DMSO” value in assay [1] (0.5 uM) is recorded as 1.0752; in assay [1] (1 uM), 1.0848; in assay [1] (5 uM), 1.2058; in assay [1] (10 uM) it was 1.1088; in assay [1] (20 uM) it was 0.9750; in assay [1] (40 uM) it was 1.0390. Further, the “Burkin Assay in Myotubes, α7 integrin LacZ reporter signal relative to DMSO” value in assay [2] (0.5 uM) stood at 1.111; in assay [2] (1 uM), 0.9205; in assay [2] (5 uM), 0.9467; in assay [2] (10 uM), 0.9476; in assay [2] (20 uM), 0.8369; in assay [2] (40 uM), 0.856. For the same compound, the “CMV-LACZ in Myoblasts (β-galactosidase activity relative to DMSO)” value in assay [3] (0.5 uM) is recorded as 1.0753; in assay [3] (1 uM) it was 1.8970; in assay [3] (5 uM), 0.8193; in assay [3] (10 uM), 0.9954; in assay [3] (20 uM), 0.9491; in assay [3] (40 uM), 0.9000. Also, the “Burkin Assay in Myoblasts, signal relative to DMSO” value worked out at 1.262 in assay [4] (0.5 uM); 1.0875 in assay [4] (1 uM); 0.9262 in assay [4] (5 uM); 0.909 in assay [4] (10 uM); 1.139 in assay [4] (20 uM); 1.068 in assay [4] (40 uM).

As for `C[C@H]1CNC(=O)c2c(C(=O)Nc3ccc(CNC(=O)OC(C)(C)C)cc3)ncn21` [MLS003126425], in assay [2], the “MT FOLD INCREASE” value is given as 2.0 fold and the EC50 was 7 µM. Further, in assay [5], the “Online Screen Fold-change” value worked out at 1.9 and the “Online Screen Score” value came to 43.

In the case of `Cc1cc(C)c(/C=C2\C(=O)Nc3ccccc32)[nH]1` [NCGC00094381-04], the “CMV-LACZ in Myotubes, value relative to DMSO” value was found to be 1.0845 in assay [1] (0.5 uM); 1.4927 in assay [1] (1 uM); 1.2849 in assay [1] (5 uM); 1.1010 in assay [1] (10 uM); 3.8710 in assay [1] (20 uM); 8.1220 in assay [1] (40 uM). Moreover, the “CMV-LACZ in Myoblasts, value relative to DMSO” value amounted to 1.0763 in assay [3] (0.5 uM); 1.1366 in assay [3] (5 uM); 0.9770 in assay [3] (10 uM); 0.9330 in assay [3] (20 uM); 0.9697 in assay [3] (40 uM).

With `O=C(Nc1ccc(N2CCN(C(=O)c3ccccc3F)CC2)cc1)c1cncc(Br)c1` [MLS001060533], in assay [2], the “MT FOLD INCREASE” value is reported as 1.5 fold and the EC50 worked out at 4.7 µM. Also, in assay [5], the “Online Screen Fold-change” value is given as 1.9 and the “Online Screen Score” value stood at 42.
